Test [1] has as its system human aspartyl (asparaginyl) β-hydroxylase (HAAH) mRNA expression. The test can be described thus: HAAH mRNA expression (qRT-PCR) in patient leukocytes cultured with or without imatinib. In kind it is cell-based. To be noted: 1 μM imatinib, 24 hours, vs untreated cells. From the text: This assay procedure allows the quantitative comparison of test RNA to a standard curve using single tube TaqMan® reactions.
Analyze as described in Perkin Elmer sequence detection system manual. A standard amplification curve of ASPH-B was obtained previously, to which unknown samples are compared to obtain the number of copies of HAAH mRNA in the sample.
Patient leukocytes were isolated from patient blood samples and grown in culture in the presence or absence of imatinib mesylate. After overnight incubation, qRT-PCR was used to determine human aspartyl (asparaginyl) β-hydroxylase (HAAH) mRNA expression in both treated and untreated cells. Percentage decrease in mRNA expression level is determined by comparing expression levels in treated vs. non-treated leukocytes from each individual patient.
[…]. This percentage change is consistent with a prediction of sensitivity to imatinib mesylate, based on numerous studies done by the present inventors. […].

Test [2] concerns gastrointestinal stromal tumor (GIST) cells, which express an activating c-kit mutation. To be noted: in vitro; cited from earlier work.

SMILES strings stand for the structures. Structures can show the parent of a compound that is named as a salt.

For the compound `Cc1ccc(NC(=O)c2ccc(CN3CCN(C)CC3)cc2)cc1Nc1nccc(-c2cccnc2)n1` [imatinib, Imatinib mesylate], in test [1] (leukocytes of 27 CML patients (later responders)), the “decrease in HAAH expression after culture in the presence of imatinib” value was 30-75%. The “reduction in HAAH transcript levels after culture in the presence of imatinib” value in test [1] (leukocytes of the 12 other CML patients (non-responders)) was < 25%. In addition, in test [2], the apoptosis entry is “induces apoptosis” and the proliferation entry is listed as “inhibits proliferation”.
